Among the test systems are SF-539 CNS; SF-268 CNS; SK-OV-3 ovarian; K-562 leukemia; SNB-19 CNS; PC-3 prostate; IGROV1 ovarian; HCT-15 colon; A498 renal; KM12 colon.
Common to all, as to test: NCI anticancer screen, dose series, 48 h

From PubChem BioAssay (NCI) come the findings set out here.

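Five concentrations, 48 hours, 96-well plates. Abbreviation: GI50, concentration required for 50% inhibition of growth. TGI denotes the concentration required for complete inhibition of growth.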

Consider `CC1=C(c2cccc(O)c2)[C@H](c2ccc(OCCN3CC(CF)C3)cc2)Oc2ccc(O)cc21`, for which the GI50 with SF-539 CNS is 5.78 µM; in the assay on SF-268 CNS, 6.28 µM; with SK-OV-3 ovarian, 6.26 µM; with K-562 leukemia it was 3.33 µM; with SNB-19 CNS it was 10.1 µM; in the assay on PC-3 prostate, 5.8 µM. The GI50 with IGROV1 ovarian was 4.42 µM; in the assay with HCT-15 colon it was 6.09 µM; in the assay with A498 renal it was 1680 nM; in the assay with KM12 colon it was 6.44 µM. In addition, the TGI was 18.3 µM with SF-539 CNS; 21.6 µM with SF-268 CNS; 20.6 µM in the assay on SK-OV-3 ovarian; 17.9 µM in the assay with K-562 leukemia; 22.1 µM with SNB-19 CNS; 20.9 µM in the assay with PC-3 prostate. For the same compound, the TGI was 16.6 µM in the assay on IGROV1 ovarian, 19.6 µM in the assay with HCT-15 colon, 9.66 µM with A498 renal and 21.7 µM in the assay with KM12 colon.
Consider `NCCCC[C@@H]1NC(=O)[C@H]2CCCN2C(=O)[C@H](Cc2ccccc2)CNC(=O)[C@H](Cc2ccccc2)NC1=O`, for which the GI50 was > 37.5 µM in the assay on SF-539 CNS; > 37.5 µM with SF-268 CNS; > 37.5 µM in the assay with SK-OV-3 ovarian; > 17.9 µM with K-562 leukemia; > 37.5 µM in the assay on SNB-19 CNS; > 37.5 µM with PC-3 prostate. For the same compound, the GI50 with IGROV1 ovarian is > 37.5 µM; with HCT-15 colon it was > 37.5 µM; with A498 renal it was > 37500 nM; in the assay on KM12 colon, > 37.5 µM. For the same compound, the TGI with SF-539 CNS, with SF-268 CNS, in the assay on SK-OV-3 ovarian, in the assay on K-562 leukemia, with SNB-19 CNS and with PC-3 prostate was > 37.5 µM each time. Also, the TGI in the assay with IGROV1 ovarian, in the assay on HCT-15 colon, with A498 renal and in the assay on KM12 colon was > 37.5 µM throughout.
Regarding `Cc1cc2c(C(C)C)c(O)c(O)cc2c(O)c1-c1c(C)cc2c(C(C)C)c(O)c(O)cc2c1O`, the GI50 in the assay on SF-539 CNS is 19.9 µM; in the assay with SF-268 CNS, 12 µM; with SK-OV-3 ovarian it was 23.9 µM; with K-562 leukemia, 5.72 µM; with SNB-19 CNS it was 14.9 µM; with PC-3 prostate, 12.4 µM. For the same compound, the GI50 in the assay with IGROV1 ovarian is 10.1 µM; in the assay with HCT-15 colon, 5.31 µM; in the assay on A498 renal, 14100 nM; with KM12 colon, 11.6 µM. In addition, the TGI amounted to 43.5 µM with SF-539 CNS; 34.6 µM in the assay on SF-268 CNS; 73.5 µM in the assay on SK-OV-3 ovarian; 27.7 µM in the assay with K-562 leukemia; 35.6 µM in the assay on SNB-19 CNS; 27.7 µM in the assay with PC-3 prostate. Besides, the TGI came to 23.6 µM in the assay on IGROV1 ovarian, 20.9 µM with HCT-15 colon, 32.2 µM in the assay with A498 renal and 27.2 µM in the assay on KM12 colon.
For the compound `COc1ccc2c(c1)c(CC(=O)[Se]C)c(C)n2C(=O)c1ccc(Cl)cc1`, the GI50 in the assay with SF-539 CNS was > 0.238 µM; with SF-268 CNS, > 0.199 µM; in the assay with SK-OV-3 ovarian it was > 0.658 µM; in the assay with K-562 leukemia, > 0.583 µM; in the assay on SNB-19 CNS it was > 0.421 µM; in the assay on PC-3 prostate, > 0.337 µM. The GI50 in the assay with IGROV1 ovarian is > 0.199 µM; in the assay with HCT-15 colon, > 0.506 µM; in the assay on A498 renal it was 269 nM; in the assay on KM12 colon it was > 0.577 µM. Also, the TGI in the assay with SF-539 CNS is > 0.526 µM; in the assay on SF-268 CNS, > 0.53 µM; in the assay with SK-OV-3 ovarian it was 0.989 µM; in the assay with K-562 leukemia, > 1 µM; with SNB-19 CNS, > 0.752 µM; in the assay on PC-3 prostate, > 0.897 µM. The TGI with IGROV1 ovarian was > 0.615 µM; in the assay on HCT-15 colon, > 1 µM; in the assay with A498 renal, > 0.561 µM; with KM12 colon, > 1 µM.
As to `C#CC#CC#CC#CC#CC#CC#CC#CCC1OCC(COC(=O)O[C@@H](C(=O)O[C@H]2C[C@@]3(O)[C@@H](OC(=O)c4ccccc4)[C@@H]4[C@]5(OC(C)=O)CO[C@@H]5C[C@H](O)[C@@]4(C)C(=O)[C@H](OC(C)=O)C(=C2C)C3(C)C)[C@@H](NC(=O)c2ccccc2)c2ccccc2)O1` (some centres undefined), the GI50 is 0.156 µM in the assay on SF-539 CNS; 0.379 µM in the assay with SF-268 CNS; 0.51 µM in the assay on SK-OV-3 ovarian; 0.121 µM in the assay with K-562 leukemia; 0.612 µM with SNB-19 CNS; 0.268 µM in the assay with PC-3 prostate. Also, the GI50 in the assay with IGROV1 ovarian was 0.235 µM; in the assay on HCT-15 colon, > 9.51 µM; with A498 renal, 191 nM; in the assay on KM12 colon it was 0.0986 µM. Besides, the TGI in the assay on SF-539 CNS was 1.97 µM; in the assay with SF-268 CNS, > 33.3 µM; in the assay with SK-OV-3 ovarian, > 33.3 µM; with K-562 leukemia it was > 33.3 µM; in the assay with SNB-19 CNS, > 33.3 µM; with PC-3 prostate it was > 33.3 µM. The TGI with IGROV1 ovarian, with HCT-15 colon and in the assay with KM12 colon was > 33.3 µM each time.
`COc1cc(C(=O)c2c(-c3ccccc3)oc3c(OC)cccc23)cc(OC)c1OC`: the GI50 is 0.0293 µM in the assay with SF-539 CNS; 0.128 µM in the assay on SF-268 CNS; 1.57 µM with SK-OV-3 ovarian; 0.0368 µM in the assay on K-562 leukemia; 0.0789 µM with SNB-19 CNS; 0.0557 µM in the assay on PC-3 prostate. In addition, the GI50 with IGROV1 ovarian was 0.0677 µM; in the assay with HCT-15 colon it was 0.0444 µM; with A498 renal, 21.2 nM; with KM12 colon, 0.0567 µM. Besides, the TGI with SF-539 CNS is 0.173 µM; in the assay with SF-268 CNS, > 100 µM; with SK-OV-3 ovarian, > 100 µM; with K-562 leukemia, > 100 µM; in the assay with SNB-19 CNS, > 100 µM; in the assay with PC-3 prostate it was > 100 µM. Besides, the TGI with IGROV1 ovarian is > 100 µM; in the assay on HCT-15 colon, > 100 µM; in the assay on A498 renal, 0.0696 µM; in the assay on KM12 colon, > 100 µM.
Turning to `Cc1[nH]c2ccccc2c1CCCO`, the GI50 in the assay on SF-539 CNS, in the assay on SF-268 CNS, with SK-OV-3 ovarian, in the assay on K-562 leukemia, in the assay on SNB-19 CNS and in the assay on PC-3 prostate was > 100 µM in each case. Also, the GI50 was 82.9 µM with IGROV1 ovarian, > 100 µM in the assay on HCT-15 colon, > 100000 nM in the assay with A498 renal and > 100 µM in the assay on KM12 colon. Besides, the TGI with SF-539 CNS, with SF-268 CNS, with SK-OV-3 ovarian, in the assay on K-562 leukemia, in the assay with SNB-19 CNS and in the assay with PC-3 prostate was > 100 µM throughout. The TGI in the assay with IGROV1 ovarian, in the assay with HCT-15 colon, in the assay with A498 renal and in the assay with KM12 colon was > 100 µM in each case.
With `C=C1C(O)C2C(=C(CC)C13CC3)C(=O)C(C)(C)C2OC` (centres undefined), the GI50 with SF-539 CNS is 54.4 µM; in the assay on SF-268 CNS, > 100 µM; with SK-OV-3 ovarian, > 100 µM; in the assay on K-562 leukemia, 31.3 µM; in the assay with SNB-19 CNS it was > 100 µM; in the assay with PC-3 prostate it was 35.2 µM. The GI50 is 23.8 µM in the assay with IGROV1 ovarian, 59 µM with HCT-15 colon, > 100000 nM with A498 renal and 60.9 µM with KM12 colon. The TGI in the assay on SF-539 CNS, in the assay with SF-268 CNS, in the assay with SK-OV-3 ovarian, in the assay on K-562 leukemia, in the assay on SNB-19 CNS and with PC-3 prostate was > 100 µM throughout. Also, the TGI in the assay with IGROV1 ovarian, with HCT-15 colon, in the assay on A498 renal and in the assay on KM12 colon was > 100 µM in each case.
In the case of `N#C/C(=C\c1ccsc1)c1nc2ccccc2o1`, the GI50 in the assay on SF-539 CNS was 38.7 µM; with SF-268 CNS it was 38 µM; with SK-OV-3 ovarian it was 40.7 µM; in the assay with K-562 leukemia, > 100 µM; with SNB-19 CNS, > 100 µM; with PC-3 prostate, > 100 µM. Moreover, the GI50 with IGROV1 ovarian is 33.3 µM; in the assay on HCT-15 colon it was > 100 µM; in the assay on A498 renal, 33600 nM; with KM12 colon, > 100 µM. Also, the TGI in the assay with SF-539 CNS, in the assay on SF-268 CNS, in the assay with SK-OV-3 ovarian, in the assay on K-562 leukemia, in the assay on SNB-19 CNS and in the assay with PC-3 prostate was > 100 µM each time. Also, the TGI in the assay with IGROV1 ovarian, in the assay with HCT-15 colon, with A498 renal and in the assay on KM12 colon was > 100 µM each time.
Take `COC(=O)C1(Cc2ccc3c(c2)CCC3)Cc2ccccc2C1O` (centres undefined): the TGI in the assay on SF-539 CNS came out at 33.1 µM; in the assay on SF-268 CNS, 41.6 µM; in the assay with SK-OV-3 ovarian, 44.2 µM; in the assay on K-562 leukemia, 40.5 µM; in the assay with SNB-19 CNS it was 35.6 µM; with PC-3 prostate it was 29.2 µM. The TGI in the assay with IGROV1 ovarian worked out at 51.7 µM; with HCT-15 colon, 50.7 µM; in the assay with A498 renal, 33.7 µM; in the assay on KM12 colon, 47.6 µM.
For `O=C1/C(=C/c2ccccc2)CN(C(=O)CCN2CCOCC2)C/C1=C\c1ccccc1`, the TGI in the assay on SF-539 CNS is 4.2 µM; with SF-268 CNS, 8.73 µM; in the assay on SK-OV-3 ovarian, 24.2 µM; in the assay on K-562 leukemia it was 4.18 µM; with SNB-19 CNS it was 14.5 µM; with PC-3 prostate, 8.51 µM. Moreover, the TGI came out at 18.8 µM with IGROV1 ovarian, 4.96 µM with HCT-15 colon, 25.5 µM with A498 renal and 2.99 µM with KM12 colon.
